Each structure is given as a SMILES string.

For one assay, the target named is T1, SIRT3 (Homo sapiens, UniProt Q9NTG7).
T1 sequence (Q9NTG7 1-399): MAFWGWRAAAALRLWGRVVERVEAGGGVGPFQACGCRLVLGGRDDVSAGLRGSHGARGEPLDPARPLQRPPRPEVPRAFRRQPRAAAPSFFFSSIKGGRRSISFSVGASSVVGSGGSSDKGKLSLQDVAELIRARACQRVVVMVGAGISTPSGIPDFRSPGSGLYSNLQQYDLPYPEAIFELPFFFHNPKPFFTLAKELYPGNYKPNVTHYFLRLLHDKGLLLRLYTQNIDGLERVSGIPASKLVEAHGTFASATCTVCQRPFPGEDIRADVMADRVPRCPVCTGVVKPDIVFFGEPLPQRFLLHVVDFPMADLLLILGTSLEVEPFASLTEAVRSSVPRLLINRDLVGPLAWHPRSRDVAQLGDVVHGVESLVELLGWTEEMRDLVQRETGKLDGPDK
Kind of assay: SIRT3 enzyme inhibitory assay (fluorescence). The assay is classed as biochemical. The conditions noted are these: dose of 10 μM; mean of three experiments; read-out: SIRT3 percentage inhibitory rate. As for the experimental part: (§1) All of the enzymatic reactions were conducted at 37°C for 30 min. […] The compounds were diluted in 10% DMSO and 5 ul of the dilution was added to each reaction mixture (50 ul). The assay was performed by quantitating the amount of fluorescent product generated from the enzyme reaction. Fluorescence intensity is then analyzed at excitation wavelength of 350–360 nm and emission wavelength of 450–460 nm on a SpectraMax M5 microtiter plate reader. The IC50 values were calculated using Prism GraphPad software.

In the next assay the test system is THP-1 cells. Kind of assay: In vitro antiproliferative CCK-8 assay, THP-1. The format is cell-based. The settings on record: Homo sapiens, dose of 1 μM, mean of three experiments, read-out: THP-1 percentage inhibitory rate. As for the experimental part:
The proliferation of THP-1, MOLM-13, SEM and MV4-11 cells was tested by CCK-8 assay. Briefly, cells were seeded in 96-well plate with about 5 × 10^3 cells in each well. The cells were treated with P6 or Ara-C (0–10 µM) after 24 h of incubation. CCK-8 reagent ([…]) was added to each well after 72 h of incubation, and cells were incubated at 37°C for 4 h. The light absorbance at 450 nm was measured by using an Opsys microplate reader (Dynex Technologirs, Chantilly, VA, United States). Results are illustrated as percent of cell viability normalized to DMSO-treated control cells.
(In general: Tetrazolium dyes change colour on reduction, which living cells bring about.)

The target of the next assay is T2, SIRT2 (Homo sapiens, UniProt Q8IXJ6).
T2 sequence (Q8IXJ6 1-389): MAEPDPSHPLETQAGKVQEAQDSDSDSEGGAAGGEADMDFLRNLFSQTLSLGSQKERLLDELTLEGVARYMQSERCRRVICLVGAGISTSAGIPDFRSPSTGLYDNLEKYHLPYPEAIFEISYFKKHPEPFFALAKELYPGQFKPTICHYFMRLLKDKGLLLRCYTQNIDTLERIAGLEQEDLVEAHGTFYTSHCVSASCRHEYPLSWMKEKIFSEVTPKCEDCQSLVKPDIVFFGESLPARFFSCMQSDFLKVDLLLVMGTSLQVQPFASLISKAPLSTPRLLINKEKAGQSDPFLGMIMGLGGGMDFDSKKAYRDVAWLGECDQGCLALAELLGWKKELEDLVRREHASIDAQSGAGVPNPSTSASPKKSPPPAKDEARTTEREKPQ
Kind of assay: SIRT2 enzyme inhibitory assay (fluorescence). The assay is classed as biochemical. The conditions noted are these: for activity at 0.01 µM / activity at 0.033 µM / activity at 0.1 µM / activity at 0.333 µM / activity at 1 µM / activity at 3.3 µM / activity at 10 µM / activity at 33 µM / activity at 100 µM: SIRT2 enzyme activity; for activity at 0.01 µM: 10 nM; for activity at 0.033 µM: 33 nM; for activity at 0.1 µM: 100 nM; for activity at 0.333 µM: 333 nM. As for the experimental part: as §1

Another assay addresses T3, SIRT1 (Homo sapiens, UniProt Q96EB6).
T3 sequence (Q96EB6 1-747): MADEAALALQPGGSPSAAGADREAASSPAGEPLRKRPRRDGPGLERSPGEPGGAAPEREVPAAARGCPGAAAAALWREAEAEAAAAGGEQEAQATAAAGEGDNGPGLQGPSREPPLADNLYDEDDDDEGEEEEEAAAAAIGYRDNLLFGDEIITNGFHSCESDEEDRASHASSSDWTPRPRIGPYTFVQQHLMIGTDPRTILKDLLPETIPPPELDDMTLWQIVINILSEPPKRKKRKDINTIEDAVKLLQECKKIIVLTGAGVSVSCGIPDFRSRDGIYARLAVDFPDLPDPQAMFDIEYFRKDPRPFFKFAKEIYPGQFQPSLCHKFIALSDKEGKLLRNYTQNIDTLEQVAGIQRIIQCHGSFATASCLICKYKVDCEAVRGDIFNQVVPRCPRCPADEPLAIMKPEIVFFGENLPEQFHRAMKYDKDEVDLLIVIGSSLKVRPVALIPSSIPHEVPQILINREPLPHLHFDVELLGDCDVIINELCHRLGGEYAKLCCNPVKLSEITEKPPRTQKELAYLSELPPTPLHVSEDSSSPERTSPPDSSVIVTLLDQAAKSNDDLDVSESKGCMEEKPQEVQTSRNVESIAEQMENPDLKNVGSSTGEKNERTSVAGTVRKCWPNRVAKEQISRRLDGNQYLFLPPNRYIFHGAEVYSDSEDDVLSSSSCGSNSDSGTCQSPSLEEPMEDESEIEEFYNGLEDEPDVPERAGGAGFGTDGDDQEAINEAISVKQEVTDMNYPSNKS
Kind of assay: SIRT1 enzyme inhibitory assay (fluorescence). The assay is classed as biochemical. The settings on record: SIRT1 enzyme activity; for activity at 0.333 µM: 333 nM. The procedure: as §1

Turning to `C=CC(=O)Nc1ccc(-c2cc(C(=O)N3CCN(c4ccc(F)cc4)CC3)c3ccccc3n2)cc1` [Compound P1], the inhibition at 10 µM on SIRT3 is 20.2 ± 1.22%. In the assay with THP-1 cells, the inhibition at 1 µM came to 32.5 ± 2.56%.

As to `C=CC(=O)Nc1ccc(-c2cc(C(=O)N3CCN(C(=O)OC(C)(C)C)CC3)c3ccccc3n2)cc1` [Compound P2, 4-[2-(4-Acryloylamino-phenyl)-quinoline-4-carbonyl]-piperazine-1-carboxylic acid tert-butyl ester], on SIRT3, the inhibition at 10 µM worked out at 23.5 ± 2.13%. In addition, the inhibition at 1 µM in the assay on THP-1 cells was found to be 26.4 ± 1.55%.

`C=CC(=O)Nc1ccc(-c2cc(C(=O)N3CCN(C(C)C)CC3)c3ccccc3n2)cc1` [Compound P3, N-{4-[4-(4-Isopropyl-piperazine-1-carbonyl)-quinolin-2-yl]-phenyl}-acrylamide]: the inhibition at 10 µM on SIRT3 stood at 30.6 ± 2.45%. Besides, the inhibition at 1 µM with THP-1 cells amounted to 8.78 ± 0.37%.

In the case of `C=CC(=O)Nc1ccc(-c2cc(C(=O)N3CCN(c4cccc(Cl)c4)CC3)c3ccccc3n2)cc1` [Compound P4, N-(4-{4-[4-(3-Chloro-phenyl)-piperazine-1-carbonyl]-quinolin-2-yl}-phenyl)-acrylamide], the inhibition at 10 µM at SIRT3 was found to be 21.8 ± 1.62%. For the same molecule, in the assay on THP-1 cells, the inhibition at 1 µM is 57.9 ± 3.04%.

On to `C=CC(=O)Nc1ccc(-c2cc(C(=O)N3CCN(c4ccc(Cl)cc4)CC3)c3ccccc3n2)cc1` [Compound P5, N-(4-{4-[4-(4-Chloro-phenyl)-piperazine-1-carbonyl]-quinolin-2-yl}-phenyl)-acrylamide], for which, at SIRT3, the inhibition at 10 µM came to 22.6 ± 1.87%. Also, in the assay on THP-1 cells, the inhibition at 1 µM is 56 ± 2.66%.

`C=CC(=O)Nc1ccc(-c2cc(C(=O)Nc3ccc(N4CCN(C)CC4)cc3)c3ccccc3n2)cc1` [Compound P19]: on SIRT2 (Repeat1), the activity at 0.01 µM turned out to be 101%, the activity at 0.033 µM was 99%, the activity at 0.1 µM stood at 101% and the activity at 0.333 µM came to 96%. At SIRT2 (Repeat1), the activity at 1 µM was 97%, the activity at 3.3 µM was 100%, the activity at 10 µM was 91% and the activity at 33 µM came to 79%. On SIRT2 (Repeat1), the activity at 100 µM is 34%. In addition, on SIRT2 (Repeat2), the activity at 0.01 µM was determined as 99%, the activity at 0.033 µM came to 99%, the activity at 0.1 µM is 101% and the activity at 0.333 µM came out at 98%. On SIRT2 (Repeat2), the activity at 1 µM came out at 98%, the activity at 3.3 µM worked out at 99%, the activity at 10 µM was 86% and the activity at 33 µM came to 76%. For the same molecule, on SIRT2 (Repeat2), the activity at 100 µM amounted to 28%. The IC50 (usually the concentration that gives 50% inhibition) against SIRT2 (mean of two experiments) was 63.6 ± 4.2 µM.

In the case of `NC(=O)c1cccnc1` [Nicotinamide, reference compound], the activity at 0.01 µM on SIRT1 (10 nM, Repeat2) was 98%. The activity at 0.033 µM at SIRT1 (33 nM, Repeat2) came out at 99%. For the same molecule, the activity at 0.1 µM at SIRT1 (100 nM, Repeat1) turned out to be 98%. At SIRT1 (Repeat1), the activity at 0.333 µM is 99%, the activity at 3.3 µM is 93%, the activity at 10 µM came to 79% and the activity at 33 µM amounted to 59%. For the same molecule, on SIRT1 (Repeat1), the activity at 100 µM was determined as 10%. Besides, at SIRT1 (Repeat2), the activity at 0.333 µM was determined as 97%, the activity at 3.3 µM was determined as 96%, the activity at 10 µM amounted to 73% and the activity at 33 µM stood at 52%. Further, the activity at 100 µM at SIRT1 (Repeat2) was 17%. For the same molecule, the activity at 1 µM at SIRT1 (1 µM, Repeat1) came to 100%. Besides, at SIRT2 (Repeat1), the activity at 0.01 µM was 100%, the activity at 0.033 µM turned out to be 99%, the activity at 0.1 µM stood at 97% and the activity at 0.333 µM is 100%. Besides, on SIRT2 (Repeat1), the activity at 3.3 µM turned out to be 92%, the activity at 10 µM worked out at 79%, the activity at 33 µM worked out at 39% and the activity at 100 µM worked out at 17%. Also, on SIRT2 (Repeat2), the activity at 0.01 µM turned out to be 99%, the activity at 0.033 µM was determined as 98%, the activity at 0.333 µM is 100% and the activity at 1 µM came to 99%. For the same molecule, at SIRT2 (Repeat2), the activity at 3.3 µM amounted to 91%, the activity at 10 µM is 69%, the activity at 33 µM is 43% and the activity at 100 µM turned out to be 12%.

The values above are taken from publication PMC9005971, “Discovery of 2-(4-Acrylamidophenyl)-Quinoline-4-Carboxylic Acid Derivatives as Potent SIRT3 Inhibitors” (Frontiers in Chemistry, 2022).
